Test results taken from ChEMBL document CHEMBL1201862, “PubChem BioAssay data set” (2004).
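Step 1: Grow cells in 96-well plates. Step 2: Expose to compound for 48 hours at 5 concentrations. Step 3: Interpolate endpoints linearly; if unreached, use highest concentration. GI50: concentration for 50% inhibition of growth.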 Calls of active or inactive are those of the source. Rule as the data show it: active = GI50 up to about 1.1 µM and inactive = higher.

How the values were obtained:
Experiment in all cases: DTP human tumour cell line panel, 48 h
786-0 = test system: 786-0
ACHN = test system: ACHN
CCRF-CEM = test system: CCRF-CEM
EKVX = test system: EKVX
HL-60 = test system: HL-60
KM12 = test system: KM12
M14 = test system: M14
Malme-3M = test system: Malme-3M
NCI-H23 = test system: NCI-H23
OVCAR-4 = test system: OVCAR-4
OVCAR-8 = test system: OVCAR-8
SF-539 = test system: SF-539
SK-MEL-28 = test system: SK-MEL-28
SR = test system: SR
UO-31 = test system: UO-31
CAKI-1 = test system: CAKI-1
SK-MEL-2 = test system: SK-MEL-2

Measured: GI50

COc1ccc(-c2cc(O)c3cc(Cl)ccc3n2)cc1
inactive: 786-0 > 100 µM | ACHN > 100 µM | CCRF-CEM > 100 µM | EKVX > 100 µM | HL-60 > 100 µM | KM12 91.8 µM | M14 > 100 µM | Malme-3M > 100 µM | NCI-H23 > 100 µM | OVCAR-4 > 100 µM | OVCAR-8 > 100 µM | SF-539 > 100 µM | SK-MEL-28 > 100 µM | SR > 100 µM | UO-31 > 100 µM

COC(=O)C1=C(C[S+]([O-])c2ccccc2[N+](=O)[O-])ON(C)C1c1ccccc1 (stereo unspecified)
inactive: 786-0 40.6 µM | ACHN 31.2 µM | CAKI-1 45.7 µM | CCRF-CEM 10.5 µM | EKVX 55.6 µM | HL-60 17.4 µM | KM12 55.5 µM | M14 94 µM | Malme-3M > 100 µM | NCI-H23 > 100 µM | OVCAR-4 66.7 µM | OVCAR-8 21.3 µM | SF-539 27.3 µM | SK-MEL-2 62.1 µM | UO-31 46.8 µM

COc1ccc(-c2ccccc2)c(N/N=C2\CCCNC2=O)c1
inactive: 786-0 85.7 µM | ACHN > 100 µM | EKVX > 100 µM | KM12 > 100 µM | M14 > 100 µM | Malme-3M > 100 µM | NCI-H23 > 100 µM | OVCAR-8 > 100 µM | SF-539 50.7 µM | SK-MEL-28 > 100 µM | SK-MEL-2 > 100 µM | SR 3.55 µM | UO-31 > 100 µM

COc1ccc2[nH]c3c(c2c1)[C@H]1CCC(C(C)(C)C)C[C@H]1[C@H]1C(=O)N(c2ccccc2)C(=O)[C@@H]31 (stereo partly specified)
inactive: 786-0 3.86 µM | ACHN 4.17 µM | CAKI-1 12 µM | CCRF-CEM 18.9 µM | EKVX 32.7 µM | HL-60 39.4 µM | KM12 > 43.4 µM | M14 8.22 µM | Malme-3M 15.8 µM | NCI-H23 12.1 µM | OVCAR-4 3.3 µM | OVCAR-8 6.84 µM | SF-539 5.4 µM | SK-MEL-28 44.3 µM | SK-MEL-2 20 µM | UO-31 24 µM

CN1c2ccccc2N(C)C23N(C)c4ccccc4N(C)C12N(C)c1ccccc1N3C (stereo unspecified)
inactive: 786-0 > 100 µM | ACHN > 100 µM | CAKI-1 > 100 µM | CCRF-CEM > 100 µM | EKVX > 100 µM | HL-60 > 100 µM | KM12 > 100 µM | M14 > 100 µM | Malme-3M > 100 µM | NCI-H23 > 100 µM | OVCAR-8 > 100 µM | SF-539 > 100 µM | SK-MEL-28 > 100 µM | SK-MEL-2 > 100 µM | UO-31 > 100 µM

O=C1OC(c2ccccc2)=N/C1=C/NC(Cc1c[nH]c2ccccc12)C(=O)O (stereo unspecified)
inactive: 786-0 > 100 µM | ACHN > 100 µM | CCRF-CEM > 100 µM | EKVX > 100 µM | HL-60 > 100 µM | M14 > 100 µM | Malme-3M > 100 µM | NCI-H23 > 100 µM | OVCAR-4 > 100 µM | OVCAR-8 > 100 µM | SF-539 > 100 µM | SK-MEL-28 > 100 µM | SK-MEL-2 > 100 µM | SR > 100 µM | UO-31 > 100 µM

O=C1c2ccccc2C(=O)c2nc3c(O)cccc3cc21
inactive: 786-0 6.38 µM | ACHN 27 µM | CAKI-1 93.1 µM | EKVX 14.5 µM | KM12 47.6 µM | M14 6.34 µM | Malme-3M 53.5 µM | NCI-H23 > 100 µM | OVCAR-4 12.9 µM | OVCAR-8 26 µM | SF-539 28.4 µM | SK-MEL-28 > 100 µM | SK-MEL-2 > 100 µM | SR 3.18 µM | UO-31 14.5 µM

CN1CCc2cc(O)c3cc2C1Cc1ccc(cc1)Oc1cc(ccc1O)CC1c2c(cc4c(c2O3)OCO4)CCN1C (stereo unspecified)
inactive: 786-0 58.2 µM | ACHN 28.7 µM | CCRF-CEM 27.7 µM | EKVX 18.1 µM | HL-60 16.3 µM | KM12 29.9 µM | M14 16.8 µM | NCI-H23 > 100 µM | OVCAR-4 28.8 µM | OVCAR-8 19.8 µM | SF-539 17.3 µM | SK-MEL-28 21.3 µM | SK-MEL-2 16.1 µM | SR 28.8 µM | UO-31 1.6 µM

O=C(CC1(O)C(=O)Nc2ccc(Br)cc21)c1cccc([N+](=O)[O-])c1 (stereo unspecified)
inactive: 786-0 42.7 µM | ACHN 60.5 µM | CAKI-1 40.9 µM | CCRF-CEM 24.1 µM | EKVX 40.7 µM | HL-60 27.7 µM | KM12 42.6 µM | M14 48.8 µM | Malme-3M > 100 µM | NCI-H23 43.9 µM | OVCAR-4 23.1 µM | OVCAR-8 35.5 µM | SK-MEL-28 35.8 µM | SK-MEL-2 54.7 µM | UO-31 64.9 µM

O=C1NC2CCC(C2)C1c1ccccc1 (stereo unspecified)
inactive: 786-0 > 100 µM | ACHN > 100 µM | CCRF-CEM > 100 µM | EKVX > 100 µM | HL-60 > 100 µM | KM12 > 100 µM | M14 > 100 µM | Malme-3M > 100 µM | NCI-H23 > 100 µM | OVCAR-4 > 100 µM | OVCAR-8 > 100 µM | SF-539 > 100 µM | SK-MEL-28 > 100 µM | SR > 100 µM | UO-31 > 100 µM

COC(=O)c1cc(CC(C)C)c2c(c1)[nH]c1ccccc12
inactive: 786-0 > 100 µM | ACHN > 100 µM | CAKI-1 > 100 µM | CCRF-CEM > 100 µM | EKVX > 100 µM | KM12 91.2 µM | M14 > 100 µM | Malme-3M > 100 µM | NCI-H23 49 µM | OVCAR-4 > 100 µM | OVCAR-8 > 100 µM | SF-539 > 100 µM | SK-MEL-28 > 100 µM | SK-MEL-2 > 100 µM | UO-31 > 100 µM

O=c1ccc(=O)c2c(=O)c3ccccc3c(=O)c1=2
inactive: 786-0 39.7 µM | ACHN 60.3 µM | CAKI-1 50 µM | CCRF-CEM 33 µM | EKVX 28.7 µM | HL-60 17.2 µM | KM12 37.1 µM | M14 46 µM | Malme-3M 26.5 µM | NCI-H23 70.3 µM | OVCAR-4 61 µM | OVCAR-8 27.5 µM | SF-539 26 µM | SK-MEL-28 > 100 µM | SK-MEL-2 20.8 µM | UO-31 57.8 µM

O=C1C2C3C=CC(C2C(=O)N1CO)C1C2C(=O)N(CO)C(=O)C2C31 (stereo unspecified)
inactive: 786-0 > 44 µM | ACHN > 44.9 µM | CAKI-1 > 100 µM | CCRF-CEM 23.6 µM | EKVX > 100 µM | KM12 > 74.3 µM | M14 > 100 µM | Malme-3M > 100 µM | NCI-H23 > 100 µM | OVCAR-4 > 45.8 µM | OVCAR-8 36.4 µM | SF-539 > 61 µM | SK-MEL-28 > 84.1 µM | SK-MEL-2 > 100 µM | SR 22.5 µM | UO-31 > 100 µM
